According to patent US20230373985A1 (Origenis Gmbh, priority 2020, published 2023):

How the values were obtained:
[1] = molecular target: T1, wt human LRRK2, catalytic site (Homo sapiens, UniProt Q5S007); test: TR-FRET LanthaScreen Eu Kinase Binding Assay, LRRK2 wt; conditions: one range stated for wt and G2019, read-out: IC50, Activity Toward LRRK2(Wt)
T1 construct: 5 nM wt human LRRK2, catalytic site; purchased ThermoFisher
Method: (§1) The basic protocol for TR-FRET LanthaScreen Eu Kinase Binding Assay inhibitor studies were performed as follows. LanthaScreen Kinase Binding Assays (ThermoFisher/USA) to evaluate inhibitors were performed by addition of 5 μL of test compound in corresponding DMSO dilutions/5 μl of kinase/antibody mixture, 5 μL of tracer into 384 well small volume plates. After incubation for 1 hour at room temperature, plates were read. Data analysis of emission ratios was according LanthaScreen Eu Kinase Binding Assay protocol.
(§2) Kinase and assay components were adjusted to final concentrations according to kit protocol. For LRRK2: 5 nM wt human LRRK2, catalytic site, or G2019S human LRRK2, catalytic site (ThermoFisher/USA), 2 nM Eu-Anti-GST Antibody, 10 nM Kinase Tracer 236 in 1× Kinase Buffer A. For NUAK1: 8 nM wt human NUAK1, full length (ThermoFisher/USA), 2 nM Eu-Anti-His Antibody, 5 nM Kinase Tracer 236 in 1× Kinase Buffer A.

[2] = molecular target: T2, wt human TYK2, catalytic site (Homo sapiens, UniProt P29597); test: HTRF KinEASE assay, TYK2; type: biochemical; conditions: 1 μM ATP; read-out: IC50, Activity Toward TYK2
T2 construct: wt human TYK2, catalytic site; purchased SignalChem
T2 sequence (P29597 897-1176 limits assumed): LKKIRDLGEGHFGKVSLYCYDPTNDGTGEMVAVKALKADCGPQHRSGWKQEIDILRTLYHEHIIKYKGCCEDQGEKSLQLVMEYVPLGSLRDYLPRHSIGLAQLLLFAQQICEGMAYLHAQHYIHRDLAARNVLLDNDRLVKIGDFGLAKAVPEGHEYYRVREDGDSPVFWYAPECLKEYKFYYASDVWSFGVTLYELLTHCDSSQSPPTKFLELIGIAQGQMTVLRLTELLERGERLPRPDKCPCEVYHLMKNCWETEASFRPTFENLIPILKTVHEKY
In short: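 HTRF KinEASE-TK readout with 1 μM biotinylated TK substrate in 1× kinase buffer, ≥30 min at room temperature, then antibody/streptavidin-XL665 detection for 60 min. TYK2 at 2 nM with 1 μM ATP; JAK2 at 1 nM with 100 μM ATP. Analysis uses emission ratios.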

[3] = molecular target: T3, wt human JAK1, catalytic site (Homo sapiens, UniProt P23458); test: HTRF KinEASE assay, JAK1; type: biochemical; conditions: 2.5 μM ATP; read-out: IC50, Activity Toward JAK1
T3 construct: wt human JAK1, catalytic site; purchased ThermoFisher
In short: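 Two-step HTRF KinEASE assay: compound, kinase/biotinylated TK substrate and ATP were incubated at least 30 min at room temperature. Antibody plus streptavidin-XL665 was then added and plates were read after 60 min. Inhibition was derived from emission ratios according to the kit protocol.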

[4] = molecular target: T4, G2019S human LRRK2, catalytic site (Homo sapiens, UniProt Q5S007, G2019S); test: TR-FRET LanthaScreen Eu Kinase Binding Assay, LRRK2 G2019S; conditions: LRRK2(G2019); one range stated for wt and G2019; read-out: IC50, Activity Toward LRRK2(G2019)
T4 construct: G2019S human LRRK2, catalytic site; purchased ThermoFisher
Method: as §1, §2

T4 sequence (Q5S007 970-2527 G2019S limits assumed): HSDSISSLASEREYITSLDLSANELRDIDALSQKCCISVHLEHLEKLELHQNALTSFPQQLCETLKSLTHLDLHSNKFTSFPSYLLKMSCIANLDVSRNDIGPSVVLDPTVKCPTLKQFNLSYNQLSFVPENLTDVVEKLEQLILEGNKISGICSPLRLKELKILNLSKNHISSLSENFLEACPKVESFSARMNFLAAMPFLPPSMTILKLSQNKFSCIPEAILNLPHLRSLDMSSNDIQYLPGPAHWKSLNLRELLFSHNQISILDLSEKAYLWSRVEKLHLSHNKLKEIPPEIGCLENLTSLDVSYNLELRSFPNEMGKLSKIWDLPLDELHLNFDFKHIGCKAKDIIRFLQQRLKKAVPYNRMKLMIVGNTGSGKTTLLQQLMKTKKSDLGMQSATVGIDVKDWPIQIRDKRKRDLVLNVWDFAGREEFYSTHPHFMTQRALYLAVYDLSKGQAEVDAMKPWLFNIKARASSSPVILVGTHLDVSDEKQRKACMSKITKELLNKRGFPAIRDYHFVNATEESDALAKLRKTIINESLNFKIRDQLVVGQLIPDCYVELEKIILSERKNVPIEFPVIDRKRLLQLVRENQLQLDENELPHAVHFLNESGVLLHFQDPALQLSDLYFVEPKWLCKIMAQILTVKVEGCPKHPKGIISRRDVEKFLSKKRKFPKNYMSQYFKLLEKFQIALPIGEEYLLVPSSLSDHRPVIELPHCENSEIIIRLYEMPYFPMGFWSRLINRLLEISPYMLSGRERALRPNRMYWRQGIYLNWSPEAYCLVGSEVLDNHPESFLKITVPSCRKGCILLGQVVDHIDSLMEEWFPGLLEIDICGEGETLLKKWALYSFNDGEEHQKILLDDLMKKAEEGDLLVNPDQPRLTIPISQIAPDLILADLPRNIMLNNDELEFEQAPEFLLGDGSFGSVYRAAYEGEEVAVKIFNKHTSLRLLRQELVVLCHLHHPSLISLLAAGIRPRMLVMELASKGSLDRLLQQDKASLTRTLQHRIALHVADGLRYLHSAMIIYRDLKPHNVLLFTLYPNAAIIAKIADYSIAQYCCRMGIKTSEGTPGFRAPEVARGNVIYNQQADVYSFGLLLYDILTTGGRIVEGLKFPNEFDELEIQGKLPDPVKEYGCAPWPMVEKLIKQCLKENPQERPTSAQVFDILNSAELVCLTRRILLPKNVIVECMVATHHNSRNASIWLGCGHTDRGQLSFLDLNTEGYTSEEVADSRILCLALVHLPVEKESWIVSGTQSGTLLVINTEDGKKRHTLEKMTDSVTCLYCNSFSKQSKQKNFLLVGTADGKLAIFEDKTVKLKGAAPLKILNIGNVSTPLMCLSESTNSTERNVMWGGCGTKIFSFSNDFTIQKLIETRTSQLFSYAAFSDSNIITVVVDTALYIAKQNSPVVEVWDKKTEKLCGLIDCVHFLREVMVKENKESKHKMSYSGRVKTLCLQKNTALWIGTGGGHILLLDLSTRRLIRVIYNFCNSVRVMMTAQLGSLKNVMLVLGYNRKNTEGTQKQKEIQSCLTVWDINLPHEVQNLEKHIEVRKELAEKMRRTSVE
T1 sequence (Q5S007 970-2527 limits assumed): as the sequence (Q5S007 970-2527 G2019S limits assumed) above, with S1050G counted along it
T3 sequence (P23458 875-1153 limits assumed): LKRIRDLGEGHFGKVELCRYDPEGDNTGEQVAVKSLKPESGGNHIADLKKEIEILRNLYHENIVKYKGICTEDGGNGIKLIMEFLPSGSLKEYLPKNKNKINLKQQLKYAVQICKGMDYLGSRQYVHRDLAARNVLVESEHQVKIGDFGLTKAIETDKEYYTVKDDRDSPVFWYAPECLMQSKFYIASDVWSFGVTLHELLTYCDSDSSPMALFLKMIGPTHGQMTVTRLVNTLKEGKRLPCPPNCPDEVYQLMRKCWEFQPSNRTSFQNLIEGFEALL

Compound | IC50 [1] [nM] | IC50 [2] [nM] | IC50 [3] [nM] | IC50 [4] [nM]
Cc1cccc2nnc(-c3ccc(Nc4cn(-c5c(Cl)cccc5Cl)nc4C(N)=O)cn3)n12 [compound 388, 1-(2,6-dichlorophenyl)-4-((6-(5-methyl-[1,2,4]triazolo[4,3-a]pyridin-3-yl)pyridin-3-yl)amino)-1H-pyrazole-3-carboxamide] | 100 to 1000 | 10 to 100 | 10 to 100 | 100 to 1000
N#Cc1ccnnc1-c1ccc(Nc2cn(-c3c(Cl)cccc3Cl)nc2C(N)=O)cc1 [compound 60, 4-((4-(4-cyanopyridazin-3-yl)phenyl)amino)-1-(2,6-dichlorophenyl)-1H-pyrazole-3-carboxamide] | 100 to 1000 | 10 to 100 | 10 to 100 | 100 to 1000
NC(=O)c1nn(-c2c(Cl)cccc2Cl)cc1Nc1ccc(-c2ccnnc2)cc1 [compound 321, 1-(2,6-dichlorophenyl)-4-((4-(pyridazin-4-yl)phenyl)amino)-1H-pyrazole-3-carboxamide] | 100 to 1000 | 10 to 100 | 10 to 100 | 100 to 1000
Cc1cncnc1-c1ccc(Nc2cn(-c3c(Cl)cccc3Cl)nc2C(N)=O)cc1 [compound 51, 1-(2,6-dichlorophenyl)-4-((4-(5-methylpyrimidin-4-yl)phenyl)amino)-1H-pyrazole-3-carboxamide] | 100 to 1000 | 10 to 100 | 10 to 100 | 100 to 1000
Cc1cnccc1-c1ccc(Nc2cn(-c3c(Cl)cccc3Cl)nc2C(N)=O)cc1 [compound 260, 1-(2,6-dichlorophenyl)-4-((4-(3-methylpyridin-4-yl)phenyl)amino)-1H-pyrazole-3-carboxamide] | 100 to 1000 | 100 to 1000 | 10 to 100 | 100 to 1000
Cc1ccnnc1-c1ccc(Nc2cn(-c3c(Cl)cccc3Cl)nc2C(N)=O)cc1 [compound 45, 1-(2,6-dichlorophenyl)-4-((4-(4-methylpyridazin-3-yl)phenyl)amino)-1H-pyrazole-3-carboxamide] | 10 to 100 | < 10 | 100 to 1000 | 10 to 100
NC(=O)c1nn(-c2c(Cl)cccc2Cl)cc1Nc1ccc(-n2cc3c(n2)CCOC3)cc1 [compound 71, 1-(2,6-dichlorophenyl)-4-((4-(6,7-dihydropyrano[4,3-c]pyrazol-2(4H)-yl)phenyl)amino)-1H-pyrazole-3-carboxamide] | 100 to 1000 | 100 to 1000 | 100 to 1000 | 100 to 1000
CCn1cnnc1-c1ccc(Nc2cn(-c3c(Cl)ccc(F)c3Cl)nc2C(N)=O)cc1 [compound 418, 1-(2,6-dichloro-3-fluorophenyl)-4-((4-(4-ethyl-4H-1,2,4-triazol-3-yl)phenyl)amino)-1H-pyrazole-3-carboxamide] | 100 to 1000 | 10 to 100 | 10 to 100 | 100 to 1000
CCc1nnnn1-c1ccc(Nc2cn(-c3c(Cl)cccc3Cl)nc2C(N)=O)cc1 [compound 259, 1-(2,6-dichlorophenyl)-4-((4-(5-ethyl-1H-tetrazol-1-yl)phenyl)amino)-1H-pyrazole-3-carboxamide] | 100 to 1000 | < 10 | 10 to 100 | 100 to 1000
CC(C)n1cnnc1-c1ccc(Nc2cn(-c3c(Cl)cccc3Cl)nc2C(N)=O)cn1 [compound 400, 1-(2,6-dichlorophenyl)-4-((6-(4-isopropyl-4H-1,2,4-triazol-3-yl)pyridin-3-yl)amino)-1H-pyrazole-3-carboxamide] | 100 to 1000 | 10 to 100 | 100 to 1000 | 100 to 1000
CCn1cc(C#N)nc1-c1ccc(Nc2cn(-c3c(Cl)cccc3Cl)nc2C(N)=O)cc1 [compound 310, 4-((4-(4-cyano-1-ethyl-1H-imidazol-2-yl)phenyl)amino)-1-(2,6-dichlorophenyl)-1H-pyrazole-3-carboxamide] | 100 to 1000 | 10 to 100 | 10 to 100 | 100 to 1000
CCn1ncnc1-c1ccc(Nc2cn(-c3c(Cl)cccc3Cl)nc2C(N)=O)cc1 [compound 47, 1-(2,6-dichlorophenyl)-4-((4-(1-ethyl-1H-1,2,4-triazol-5-yl)phenyl)amino)-1H-pyrazole-3-carboxamide] | 100 to 1000 | 10 to 100 | 100 to 1000 | 100 to 1000
NC(=O)c1nn(-c2c(Cl)cccc2Cl)cc1Nc1ccc(C(=O)N2CC[C@@H](F)C2)cc1 [compound 315, (R)-1-(2,6-dichlorophenyl)-4-((4-(3-fluoropyrrolidine-1-carbonyl)phenyl)amino)-1H-pyrazole-3-carboxamide] | 100 to 1000 | < 10 | 10 to 100 | 100 to 1000
NC(=O)c1nn(-c2c(Cl)cccc2Cl)cc1Nc1cnn(-c2ncccc2F)c1 [compound 386, 1-(2,6-dichlorophenyl)-4-((1-(3-fluoropyridin-2-yl)-1H-pyrazol-4-yl)amino)-1H-pyrazole-3-carboxamide] | 100 to 1000 | 10 to 100 | 10 to 100 | 100 to 1000
NC(=O)c1nn(-c2c(Cl)cccc2Cl)cc1Nc1ccc(C(=O)N2CC[C@H](F)C2)cc1 [compound 316, (S)-1-(2,6-dichlorophenyl)-4-((4-(3-fluoropyrrolidine-1-carbonyl)phenyl)amino)-1H-pyrazole-3-carboxamide] | 100 to 1000 | < 10 | 10 to 100 | 100 to 1000

Next, values leading:

IC50 [1] [nM] | IC50 [2] [nM] | IC50 [3] [nM] | IC50 [4] [nM] | Compound
100 to 1000 | < 10 | < 10 | 100 to 1000 | CC(C)(C)C(=O)c1ccc(Nc2cn(-c3c(F)cccc3Cl)nc2C(N)=O)cc1 [compound 42, 1-(2-chloro-6-fluorophenyl)-4-((4-pivaloylphenyl)amino)-1H-pyrazole-3-carboxamide]
100 to 1000 | < 10 | 10 to 100 | 100 to 1000 | Cn1cc(C(F)(F)F)nc1-c1ccc(Nc2cn(-c3c(F)cccc3Cl)nc2C(N)=O)cc1 [compound 305, 1-(2-chloro-6-fluorophenyl)-4-((4-(1-methyl-4-(trifluoromethyl)-1H-imidazol-2-yl)phenyl)amino)-1H-pyrazole-3-carboxamide]
100 to 1000 | 10 to 100 | 10 to 100 | 100 to 1000 | Cc1ccnn1-c1ccc(Nc2cn(-c3c(Cl)cccc3Cl)nc2C(N)=O)cc1 [compound 80, 1-(2,6-dichlorophenyl)-4-((4-(5-methyl-1H-pyrazol-1-yl)phenyl)amino)-1H-pyrazole-3-carboxamide]
100 to 1000 | 10 to 100 | 10 to 100 | 100 to 1000 | NC(=O)c1nn(-c2c(Cl)cccc2Cl)cc1Nc1ccc(C(=O)NCCF)cc1 [compound 421, 1-(2,6-dichlorophenyl)-4-((4-((2-fluoroethyl)carbamoyl)phenyl)amino)-1H-pyrazole-3-carboxamide]
100 to 1000 | 100 to 1000 | 100 to 1000 | 100 to 1000 | CP(C)(=O)c1ccc(Nc2cn(-c3c(F)cccc3F)nc2C(N)=O)cc1 [compound 64, 1-(2,6-difluorophenyl)-4-((4-(dimethylphosphoryl)phenyl)amino)-1H-pyrazole-3-carboxamide]
100 to 1000 | < 10 | 10 to 100 | 100 to 1000 | NC(=O)c1nn(-c2c(Cl)cccc2Cl)cc1Nc1ccc(C(=O)N2CCC(F)(F)C2)cc1 [compound 247, 1-(2,6-dichlorophenyl)-4-((4-(3,3-difluoropyrrolidine-1-carbonyl)phenyl)amino)-1H-pyrazole-3-carboxamide]
100 to 1000 | 100 to 1000 | 10 to 100 | 100 to 1000 | Cc1ncn(C)c1-c1ccc(Nc2cn(-c3c(Cl)cccc3Cl)nc2C(N)=O)cc1 [compound 53, 1-(2,6-dichlorophenyl)-4-((4-(1,4-dimethyl-1H-imidazol-5-yl)phenyl)amino)-1H-pyrazole-3-carboxamide]
